Assay results reported in patent publication US9328374B2, “Selective culture medium and method for detecting carbapenem-resistant bacteria in a test sample” (Institut National de la Sante et de la Recherche Medicale …, priority 2011, dated 2016).

Tested on: E. coli
Assay: MIC of imipenem, ertapenem and meropenem
Assay type: cell-based, Escherichia coli

Work on `C[C@@H](O)[C@H]1C(=O)N2C(C(=O)O)=C(SCCN=CN)C[C@H]12` [IPM, imipenem] yielded an MIC (E. coli ECA, ACC-1, non-carbapenemase producer) of 0.12 µg/mL, an MIC (E. coli EVB (VEB-1)) of 0.12 µg/mL and an MIC (E. coli EVB, VEB-1, non-carbapenemase producer) of 0.12 µg/mL. For the same compound, the MIC (E. coli FOR (CTX-M-15)) was 0.12 µg/mL, the MIC (E. coli FOR, CTX-M-15, non-carbapenemase producer) was 0.12 µg/mL and the MIC (E. coli GEN (NDM-1 + OXA-1 + CMY-30 + TEM-1)) was 8 µg/mL. For the same compound, the MIC (E. coli GEN, NDM-1 + TEM-1 + CMY-30 + OXA-1) was 8 µg/mL, the MIC (E. coli GOG (OXA-48 + CTX-M-24)) was 0.5 µg/mL and the MIC (E. coli GUE (NDM-1 + OXA-1 + TEM-1)) was 3 µg/mL. For the same compound, the MIC (E. coli GUE, NDM-1 + TEM-1 + OXA-1) was 3 µg/mL, the MIC (E. coli HAN (OXA-48 + CTX-M-15)) was 3 µg/mL and the MIC (E. coli HAN, OXA-48 + CTX-M-15) was 3 µg/mL. For the same compound, the MIC (E. coli HB4 (OmpC-, OmpF-)) was 0.12 µg/mL, the MIC (E. coli HB4, (OmpC-, OmpF-), non-carbapenemase producer, porin deficiency) was 0.12 µg/mL and the MIC (E. coli IR5 (NDM-1 + CTX-M-15 + TEM-1)) was 16 µg/mL. For the same compound, the MIC (E. coli IR5, NDM-1 + TEM-1 + CTX-M-15) was 16 µg/mL, the MIC (E. coli JAP (IMP-1)) was 0.5 µg/mL and the MIC (E. coli JAP, IMP-1) was 0.5 µg/mL. The MIC (E. coli LIL, KPC-2 + TEM-1 + OXA-9) was 2 µg/mL, the MIC (E. coli MAD (VIM-1 + CTX-M-3)) was 1.5 µg/mL and the MIC (E. coli MAD, VIM-1+ CTX-M-3) was 1.5 µg/mL. It also gave an MIC (E. coli MAR (Overexpressed AmpC)) of 16 µg/mL, an MIC (E. coli MAR, Overexpressed AmpC, non-carbapenemase producer) of 16 µg/mL and an MIC (E. coli MET (Chromosome-encoded extended-spectrum cephalosporinase)) of 0.12 µg/mL. It also gave an MIC (E. coli MET, Chromosome-encoded extended-spectrum cephalosporinase, non-carbapenemase producer) of 0.12 µg/mL, an MIC (E. coli NAA (OXA-48 + CTX-M-24)) of 0.5 µg/mL and an MIC (E. coli OM3, OXA-48 + TEM-1 + CTX-M-15) of 0.5 µg/mL. It also gave an MIC (E. coli OM20, NDM-1 + TEM-1 + CTX-M-15) of 2 µg/mL, an MIC (E. coli OM22, OXA-48 + TEM-1 + CTX-M-15) of 0.5 µg/mL and an MIC (E. coli PSP (KPC-2)) of 0.5 µg/mL. The MIC (E. coli PSP, KPC-2 + TEM-1 + OXA-1) was 0.5 µg/mL, the MIC (E. coli RIC (NDM-1 + OXA-1 + OXA-10 + CMY-16)) was 1 µg/mL and the MIC (E. coli RIC, NDM-1 + CMY-16 + OXA-1 + OXA-10) was 1 µg/mL. The MIC (E. coli ROB (OXA-48)) was 0.5 µg/mL, the MIC (E. coli ROB, OXA-48) was 0.5 µg/mL and the MIC (E. coli SYD (CMY-2)) was 0.12 µg/mL. The MIC (E. coli SYD, CMY-2, non-carbapenemase producer) was 0.12 µg/mL, the MIC (E. coli TWA, IMP-8 + SHV-12) was 6 µg/mL and the MIC (E. coli ZAN, OXA-48 + TEM-1 + CTX-M-14) was 0.38 µg/mL. It also gave an MIC (strain E. coli 1008, TEM-1 + CTX-M-1, non-carbapenemase producer) of 0.19 µg/mL, an MIC (strain E. coli 1034, TEM-1 + SHV-38, non-carbapenemase producer) of 0.19 µg/mL and an MIC (strain E. coli 1048, TEM-1 + SHV-2a, non-carbapenemase producer) of 0.19 µg/mL. For the same compound, the MIC (strain E. coli 10121, CTX-M-2, non-carbapenemase producer) was 0.19 µg/mL, the MIC (strain E. coli AME, OXA-48 + CTX-M-24) was 0.25 µg/mL and the MIC (strain E. coli BON, OXA-48 + TEM-1 + CTX-M-24) was 0.38 µg/mL. For the same compound, the MIC (strain E. coli BOU, OXA-48 + CTX-M-15) was 0.5 µg/mL, the MIC (strain E. coli ECA, ACC-1, non-carbapenemase producer) was 0.12 µg/mL and the MIC (strain E. coli EVB, VEB-1, non-carbapenemase producer) was 0.12 µg/mL. It also gave an MIC (strain E. coli FOR, CTX-M-15, non-carbapenemase producer) of 0.12 µg/mL, an MIC (strain E. coli HB4, (OmpC-, OmpF-), non-carbapenemase producer) of 0.12 µg/mL and an MIC (strain E. coli JAP, IMP-1) of 0.5 µg/mL. The MIC (strain E. coli MAR, Overexpressed AmpC, non-carbapenemase producer) was 16 µg/mL, the MIC (strain E. coli MET, Chromosome-encoded extended-spectrum cephalosporinase, non-carbapenemase producer) was 0.12 µg/mL and the MIC (strain E. coli ROB, OXA-48) was 0.5 µg/mL. It also gave an MIC (strain E. coli SYD, CMY-2, non-carbapenemase producer) of 0.12 µg/mL.
